In patent US20010044404A1, “Cleaning process and composition” (3M Innovative Properties Company, priority 1995, published 2001):

Experiments:
[1] = Rinse agent in co-solvent cleaning of solder flux; conditions: solvating agent 1 minute at about 55° C., then 30 seconds in boiling solvent
Description: The ability of alkoxy-substituted perfluorocompounds to function as a rinse agent in a co-solvent cleaning process was evaluated. The above-described aluminum coupon was coated with solder flux (available from Alpha Metals as Alpha 611 rosin, mildly activated flux) by immersing the coupon into a flux-filled beaker. The flux-coated coupon was then dried using a forced air convection drier. The initial amount of the flux on the coupon was determined by weighing it on an analytical balance to the nearest 0.1 mg. The coupon was immersed in a container of a mixed solvating agent comprising approximately 50% methyl decanoate and 50% dipropylene glycol di-n-butyl ether and was sonicated for 1 minute at approximately 55° C. The coupon was then immersed for 30 seconds into alkoxy-substituted perfluorocompound which had been heated to its boiling point. The coupon was weighed again, and the results were recorded in Table 5 below as percent oil removed from the coupon.

[2] = Fluorinated oil removal from aluminum coupon; conditions: Krytox 157FSM, room temperature
Description: Using essentially the same procedure as that described in Examples 8-10, the ability of the alkoxy-substituted perfluorocompounds to remove a fluorinated oil was evaluated. As in the previous Examples, a coupon was immersed in Krytox™ 157FSM perfluoropolyether oil having carboxylic acid end groups (available from DuPont), and the percent oil remaining after immersion in the solvent (at room temperature) was determined.

[3] = Open cup flash point ASTM D1310-86; format: physicochemical
Description: (§1) Various properties were measured for C4F9OCH3, CHClFCF2OCH3, and blends of each ether compound with cosolvent, trans-1,2-dichloroethylene (hereinafter, t-DCE) or n-butyl bromide, at various weight ratios.

[4] = Paraffinic oil removal: solvating agent, then rinse in boiling solvent; conditions: methyl caproate/dipropylene glycol di-n-butyl ether 30 seconds, boiling rinse 30 seconds
Description: The above-described test coupon was dipped into a paraffinic oil comprising a mixture of linear and branched hydrocarbons (DuoSeal Pump Oil, available from Sargent Welch), was immersed in mixed solvating agent comprising approximately 50% methyl caproate and 50% dipropylene glycol di-n-butyl ether for 30 seconds, and was then rinsed in boiling alkoxy-substituted perfluorocompound for 30 seconds. The percent oil removal was determined in the above-described manner.

[5] = Stability in the presence of oxidant (potassium permanganate in acetone); format: physicochemical; conditions: refluxed four hours
Description: To assess oxidative stability, potassium permanganate (20 g, 0.126 mole) was dissolved in acetone, and C4F9OCH3 (500 g of 99.9% purity, 2.0 mole) was added to the resulting solution. The solution was refluxed for four hours, with no indication that the permanganate had been consumed (as evidenced by the absence of brown MnO2). The refluxed solution was then distilled into a 500 mL Barrett trap filled with water. The lower fluorochemical phase of the resulting mixture was separated from the upper phase, was washed with four 1.5 L aliquots of water, and was dried by passage through a column of silica gel to yield 471 g of resulting product.

[6] = Pump oil removal in vapor of boiling n-C6H14/perfluorocompound mixture; conditions: vapor of boiling 40 volume % n-C6H14, 60 volume % fluorinated component; 60 seconds
Description: The above-described test coupon was dipped into DuoSeal Pump Oil (available from Sargent-Welch) and was then immersed in the vapor of a boiling mixture of 40 volume % n-C6H14 and 60 volume % alkoxy-substituted perfluorocompound (a cleaning composition of the invention), for 60 seconds. The percent oil removal was determined in the above-described manner.

[7] = Closed cup flash point ASTM D3278-96; format: physicochemical
Description: as §1

[8] = Perfluoropolyether oil removal in solvent vapor; conditions: Brayco 815Z; vapor over boiling liquid, 60 seconds
Description: The above-described aluminum coupon was dipped into Brayco 815Z perfluoropolyether oil (available from Castrol Inc., molecular weight of about 10,000) and then immersed in alkoxy-substituted perfluorocompound vapor (over the boiling liquid) for 60 seconds. The percent oil removal was determined in the above-described manner.

With `COC(F)(F)C(F)(F)C(F)(F)C(F)(F)F` [Example C4F9OCH3, perfluorobutyl methyl ether] the “% Removed” value [1] was 100.0%, the “% Removed” value [2] was 99.1% and the “Open Cup Flash Point (ASTM D1310-86)” value ([3]; 20 weight % ether, 80 % t-DCE) was “none”. The “Open Cup Flash Point (ASTM D1310-86)” value ([3]; 50 weight % ether, 50 % t-DCE) was “none”, the “Open Cup Flash Point (ASTM D1310-86)” value ([3]; 80 weight % ether, 20 % t-DCE) was “none” and the “Open Cup Flash Point (ASTM D1310-86)” value ([3]; 100 weight % ether, 0 % t-DCE) was “none”. For the same compound, the “Percent Soil Removed” value [4] was 99.8%, the “Stability in the presence of oxidant” value [5] was “stable in the presence of the oxidant” and the “Percent Soil Removed” value [6] was 90.8%. The “Closed Cup Flash Point (ASTM D3278-96)” value ([7]; 20 weight % ether, 80 % n-butyl bromide) was “none^4”, the “Closed Cup Flash Point (ASTM D3278-96)” value ([7]; 30 weight % ether, 70 % n-butyl bromide) was “none^4” and the “Closed Cup Flash Point (ASTM D3278-96)” value ([7]; 50 weight % ether, 50 % n-butyl bromide) was “none^4”. The “Closed Cup Flash Point (ASTM D3278-96)” value ([7]; 80 weight % ether, 20 % n-butyl bromide) was “none^4”, the “Closed Cup Flash Point (ASTM D3278-96)” value ([7]; 100 weight % ether, 0 % n-butyl bromide, raised to 140° F. (60° C.)) was “none^4” and the “Percent Soil Removed” value [8] was 89.9%.
